From patent publication US9060997B2, “Antifolate compounds for the treatment of melanoma” (UNIVERSIDAD DE MURCIA, priority 2007, dated 2015)
Read-outs that look alike come from different tables or passages of the source. Values belong to the molecule of their own block, whether it stands above or below them.

Tests used:
SkMel-28 cells [1] = assay: MTT cell proliferation assay, SkMel-28; assay type: cell-based, human; conditions: for IC50: SK-MEL-28, 120 h
Method: (§1) Four human cancer cells lines (SkMel-28, MCF7, H1264 and Caco-2) were obtained from the American Type Tissue Culture Collection (ATCC) and were maintained in appropriate culture mediums supplemented with 10% fetal calf serum (FCS) and antibiotics, under standard tissue culture conditions (e.g. modified Eagle's medium (MEM) containing 1 mM sodium pyruvate and 10% fetal bovine serum (FES) under 5% CO2/95% air atmosphere.). Cell injury was evaluated by a colorimetric assay for mitochondrial function using the 3-(4,5-dimethylthiazolyl-2)-2,5-diphenyltetrazolium bromide (MTT) cell proliferation assay. For this assay cells were plated in a 96-well plate at a density of 1000 cells/well and grown until they reached 50-60% confluence. Human epidermal melanocytes (HeM) were supplied by Gentaur and were cultured in HAM-F10 medium supplemented with 10% FCS, antibiotics and the human melanocyte growth supplement (Gentaur).
Cell injury was evaluated by a colorimetric assay for mitochondrial function using the 3-(4,5-dimethylthiazolyl-2)-2,5-diphenyltetrazolium bromide (MTT) cell proliferation assay. For this assay cells were plated in a 96-well plate at a density of 1000 cells/well and grown until they reached 30% confluence. Co-treatments of SkMel-28 cells with TMECG and other reagents were carried out by supplementing medium cultures with S-adenosylmethionine (SAM), adenosine or dipyridamole (all from Sigma).

[2] = system: B16/F10 melanoma cell tumours; assay: Primary tumour model, B16/F10 melanoma in C57/B16 mice; assay type: in vivo, mouse
From the text: Translational therapy was then designed to probe the efficacy of this combination on mice induced melanoma tumor. Injection of 5×10^5 B16/F10 melanoma cells in the back of C57/B16 mice formed a blackish tumor mass, which in untreated control mice reached to a tumor area of 3.7±0.7 and 9.3±1.1 cm2 in female and male, respectively, after 21 days of cells inoculation.

Caco-2 cells = assay: MTT cell proliferation assay, Caco-2; assay type: cell-based, human; conditions: Caco-2
Method: as §1

rHDHFR [3] = target: T1, rHDHFR (Homo sapiens, UniProt P00374); assay: rHDHFR inhibition, progress curves; assay type: biochemical; conditions: for Decrease % further EI reactions: decrease of KI to KI* by further EI-complex reactions; for Ki: overall (effective) inhibition constant, read-out: KI*
T1 construct: purchased Sigma
T1 sequence (P00374 1-187): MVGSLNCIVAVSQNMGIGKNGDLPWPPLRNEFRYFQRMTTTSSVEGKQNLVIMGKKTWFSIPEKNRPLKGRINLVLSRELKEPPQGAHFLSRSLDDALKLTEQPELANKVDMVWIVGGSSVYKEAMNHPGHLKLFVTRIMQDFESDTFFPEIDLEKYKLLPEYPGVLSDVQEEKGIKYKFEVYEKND
Method: The experiments were carried out in the same buffer as fluorescence experiments in the presence of NADPH (100 μM), DHF (10 μM), and rHDHFR (1.5 nM).
(§2) The activity of rHDHFR was determined at 25° C. by following the decrease in the absorbance of NADPH and DHF at 340 nm (ε=11800 M-1 cm−1) (Stone and Morrison, 1986). Progress curves were obtained under ordered conditions ([NADPH]>>[DHF]). rHDHFR inhibition constants were calculated as described by Navarro-Perán et al., 2005b. The dissociation constant for the binding of inhibitors to free rHDHFR was determined at 25° C. by fluorescence titration in an automatic-scanning Perkin-Elmer LS50B spectrofluorimeter. Fluorescence emission spectra were recorded when rHDHFR fluorescence was excited at 290 nm. Stopped-flow fluorescence experiments were carried out using an Applied Photophysics Ltd. Pi-Star 180 spectrometer with a stopped-flow unit at 25° C.

rHDHFR [4] = target: T1, rHDHFR; assay: rHDHFR binding: fluorescence titration and stopped-flow fluorescence; conditions: for koff: calculated from KI=koff/kon; for Ki: dissociation constant, free rHDHFR, fluorescence titration; for Ki / kon: pH 7.4, 25° C.; for kon: stopped-flow fluorescence
Method: The experiments were carried out in a buffer containing 2-(N-morpholino)ethanesulfonic acid (Mes, 0.025 M), sodium acetate (0.025 M), tris-(hydroxymethyl)aminomethane (Tris 0.05 M), and NaCl (0.1 M) at pH 7.4 and 25° C. in the presence of QM and rHDHFR (0.5 μM).
Stopped-flow fluorescence experiments were carried out at pH 7.4 and 25° C. using an enzyme concentration of 0.25 μM. The reaction of rHDHFR with inhibitors was observed under pseudo-first order conditions by fluorescence at 340 nm (excitation at 290 nm). The data points s are the means of at least 3 (normally 5) repeat observations±SD. […] Aliquots (20 μl) of the incubation mixture was then diluted 50-fold into a reaction mixture containing the buffer, NADPH (100 μM), and DHF (10 μM) to give a final enzyme concentration of 1.5 nM.
as §2

human tyrosinase = target: T2, human tyrosinase (Homo sapiens, UniProt P14679); conditions: recombinant human tyrosinase (Kong et al., 2000); read-out: Michaelis-Menten constant (Km), value reported; cited from earlier work
T2 sequence (P14679 19-529): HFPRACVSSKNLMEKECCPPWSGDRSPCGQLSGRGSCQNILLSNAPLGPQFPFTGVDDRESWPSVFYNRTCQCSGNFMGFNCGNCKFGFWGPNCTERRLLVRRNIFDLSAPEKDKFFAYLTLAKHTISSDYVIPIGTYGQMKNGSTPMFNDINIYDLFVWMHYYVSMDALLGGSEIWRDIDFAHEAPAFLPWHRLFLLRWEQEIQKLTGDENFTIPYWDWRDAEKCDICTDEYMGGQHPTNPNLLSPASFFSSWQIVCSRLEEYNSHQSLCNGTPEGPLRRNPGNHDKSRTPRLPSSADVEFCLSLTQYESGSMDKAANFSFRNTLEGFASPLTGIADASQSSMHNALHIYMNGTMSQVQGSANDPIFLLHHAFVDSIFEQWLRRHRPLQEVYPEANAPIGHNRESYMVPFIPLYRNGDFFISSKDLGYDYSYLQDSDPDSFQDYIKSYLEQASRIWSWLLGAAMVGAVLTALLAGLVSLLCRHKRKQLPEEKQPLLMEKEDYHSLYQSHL

SkMel-28 cells [5] = assay: Microscopy of melanosome melanin content; assay type: cell-based, human; conditions: treated SkMel-28 versus untreated
Method: Confluent monolayers of SkMel-28 were harvested with a mixture of 0.05% trypsin, 0.53 mmol/L EDTA and washed once in 0.25 mol/L sucrose by centrifugation at 700×g for 5 min at 4° C. They were then homogenized on ice using 20 strokes of an ice-cold Dounce homogenizer and centrifuged at 700×g for 10 min at 4° C. The resultant postnuclear supernatant was centrifuged at 17,000×g for 15 min at 4° C. to yield a melanosome-enriched granular fraction (17). This fraction was resuspended in 0.5-2 ml of ice-cold 0.25 mol/L sucrose, 10 mmol/L HEPES, pH 7.0 and fixed for 1 h at room temperature in 2% glutaraldehyde, 2% paraformaldehyde in 0.1 mol/L sodium cacodylate buffer, pH 7.3. The fixative was then removed and the samples stored in PBS containing 4% sucrose at 4° C. Samples were subsequently dehydrated with graded alcohols and embedded in epoxy resin. This section were stained with uranyl acetate and lead citrate and examined with a Zeiss EM10 electron microscope.

[6] = pH dependence of absorbance and stability of the tyrosinase product; assay type: physicochemical
From the text: We studied the oxidation of TMECG by tyrosinase at pH 5.5. […] The initial formation of o-Q was confirmed by including reducing agents such as ascorbic acid or NADPH in the reaction medium. […] The pH transition might represent the equilibrium between the protonated form (QMH) and the deprotonated form (QM^−), a species which is stabilized by resonance and FIG. 9E represents the possible abundance of QM species in different melanocyte compartments.

[7] = system: Caco-2 and SkMel-28 cells; assay: Cellular uptake of ECG, TMECG and QM; assay type: in vitro ADME, human; conditions: 50 μM catechins
Method: Cellular uptake was determined by the difference between the initial concentration of catechin and the calculated at specific times in the cellular medium, and expressed as a percentage of catechin at zero time. The values presented are the mean percentage determined from five independent experiments±SD.
For cellular uptake experiments Caco-2 and SkMel-28 cells were grown until reaching 90% confluence. Then, 20 ml of cellular medium containing 50 μM catechins and 0.2 mM ascorbic acid was added and incubated for 60 h in a CO2 incubator. At specified times 1 ml-aliquots were taken and frozen in liquid N2 until the catechin concentrations were determined by HPLC. Catechins were identified by their characteristic elution times and their concentration calculated with respect to calibration curves of known concentrations of catechins.

MAT2A = conditions: cited from earlier work
[8] = system: 4T1 mice breast cancer cell line; assay: 4T1 breast cancer model in Balb/c mice; assay type: in vivo, mouse; conditions: 40 mg/Kg/d intraperitoneally, Balb/c female mice
Method: The 4T1 mice breast cancer cell line (ATCC) was used for tumour implantation. This cell line is highly metastatic and after its injection on the back of the Balb/c mice it expanded to the lungs forming metastasis in this organ. Initial experiments were designed for injection in the back to follow tumour growth and lung metastasis.
We treated 6 Balb/c female mice were treated intraperitoneally with TMCG (40 mg/Kg/d) and compared with 6 untreated (control) mice.

Molecule: Nc1ncnc2c1ncn2[C@@H]1O[C@H](CO)[C@@H](O)[C@H]1O [Adenosine, adenosine]
- effect of adenosine alone on SkMel-28 growth (SkMel-28 cells [1]; up to 500 μM): had not any detectable effect

Molecule: OCCN(CCO)c1nc(N2CCCCC2)c2nc(N(CCO)CCO)nc(N3CCCCC3)c2n1 [Dipyridamole, dipyridamole, reference compound]
- effect on tumor growth ([2]; females, DIPY 10 mg/Kg/d alone): had not visible effects on tumor growth
- effect of single treatments ([2]; male mice): not effective
- IC50 (SkMel-28 cells [1]; Homo sapiens, dipyridamole alone, SkMel-28, read-out: IC50 (at 5 days)): 20000 nM
- IC50 (SkMel-28 cells [1]; Homo sapiens, in the presence of 50 μM TMECG, SkMel-28, read-out: IC50 (at 5 days) in the presence of TMECG): < 1000 nM

Molecule: Oc1cc(O)c2c(c1)O[C@H](c1ccc(O)c(O)c1)[C@H](O)C2 [EC, Epicatechin, reference compound]
- effect of natural and synthetic catechins on Caco-2 growth (Caco-2 cells): no detectable activity

- Decrease % further EI reactions (rHDHFR [3]): 28 −fold
- Ki (rHDHFR [3]): 33 nM
- koff (rHDHFR [4]): 0.12 s⁻¹
- Ki (rHDHFR [4]): 920 nM
- kon (rHDHFR [4]): 130000 M⁻¹ s⁻¹
Molecule: O=C(O[C@@H]1Cc2c(O)cc(O)cc2O[C@@H]1c1cc(O)c(O)c(O)c1)c1cc(O)c(O)c(O)c1 [EGCG, reference compound]

Molecule: N[C@@H](Cc1ccc(O)c(O)c1)C(=O)O [L-dopa]
- Km (human tyrosinase): 360 µM

Molecule: CN(Cc1cnc2nc(N)nc(N)c2n1)c1ccc(C(=O)N[C@@H](CCC(=O)O)C(=O)O)cc1 [MTX, methotrexate]
- melanosome melanin content (SkMel-28 cells [5]): much less melanin content
- effect of leucovorin co-treatment on growth inhibition (SkMel-28 cells [1]; 100 μM leucovorin, MTX 1 μM or TMECG 50 μM, 3 days): effectively reversed this inhibition
- inhibition at 1 µM (SkMel-28 cells [1]; Homo sapiens, SK-MEL-28, 72 h, 1 μM, 3 days, SkMel-28, read-out: growth inhibited): 70%
- effect of sulfasalazine (RFC inhibitor) on antiproliferative action (SkMel-28 cells [1]; sulfasalazine 0.5 mM, MTX 0.2 μM or TMECG 10 μM, 3 days): inhibited the antiproliferative action of MTX

- stability [6]: high stability over a wide pH range
- pKa ([6]; absorbance at 470 nm vs pH, read-out: pKa of ionisable group): 6.9 ± 0.1
- Decrease % further EI reactions (rHDHFR [3]): 0 −fold
- Ki (rHDHFR [3]): 8.2 nM
- reversibility of binding to rHDHFR (rHDHFR [4]): essentially irreversible
- koff (rHDHFR [4]; read-out: koff): 0.00048 s⁻¹
- Ki (rHDHFR [4]): 8.2 ± 0.11 nM
- kon (rHDHFR [4]; read-out: kon): 58000 M⁻¹ s⁻¹
Molecule: COc1cc(C(=O)O[C@H](Cc2c(O)cc(O)cc2O)C(=O)c2ccc(O)c(O)c2)cc(OC)c1OC [QM]
- cellular uptake / membrane transport [7]: limited degree of cell membrane diffusion

Molecule: C[S+](CC[C@H](N)C(=O)O)C[C@H]1O[C@@H](n2cnc3c(N)ncnc32)[C@H](O)[C@@H]1O (stereo partly shown) [SAM, S-adenosylmethionine, reference compound]
- IC50 (MAT2A; Sullivan and Hoffman, 1983, read-out: IC50 for inhibition of MAT2): 60000 nM
- effect of SAM alone on SkMel-28 growth (SkMel-28 cells [1]; SAM alone): Only high amount of SAM (up to 100 μM) affected SkMel-28 growth

Molecule: COc1cc(C(=O)O[C@H]2Cc3c(O)cc(O)cc3O[C@@H]2c2ccc(O)c(O)c2)cc(OC)c1OC [TMCG, 3-O-(3,4,5-Trimethoxybenzoyl)-(−)-Catechin]
- growth of metastases (lung tumor volume) [8]: slower growth of metastases

Molecule: CSCC[C@H](N)C(=O)O [methionine]
- Km (MAT2A): 4 to 10 µM

Molecule: epicatechin-3-gallate [ECG, reference compound]
- Decrease % further EI reactions (rHDHFR [3]): 19 −fold
- Ki (rHDHFR [3]): 92 nM
- koff (rHDHFR [4]): 0.30 s⁻¹
- Ki (rHDHFR [4]): 1780 nM
- kon (rHDHFR [4]): 170000 M⁻¹ s⁻¹
